Experimental data from DBAASP.
≈ marks a conversion by molar mass, not a printed value. Values belong to the molecule of their own block, whether it stands above or below them.

How the values were obtained:
Experiment in all cases: ≥ marks a high value that may be exact or a test limit, other limits are often not marked, values filed in µg/mL are converted to µM
[1] = test system: Acinetobacter baumannii ATCC 7978
[2] = test system: Enterococcus faecium E007
[3] = test system: Staphylococcus aureus ATCC 29231
[4] = test system: Staphylococcus aureus MW2
[5] = test system: Escherichia coli ATCC 25922
[6] = test system: Saccharomyces cerevisiae AS2.430
[7] = test system: Staphylococcus aureus ATCC 25923
[8] = test system: Bifidobacterium longum subsp. infantis
Escherichia coli = test system: Escherichia coli
Staphylococcus aureus = test system: Staphylococcus aureus
[9] = test system: Acinetobacter baumannii ATCC 19606
[10] = test system: Enterobacter cloacae ATCC 13047
[11] = test system: Enterococcus faecium ATCC 19434
[12] = test system: Escherichia coli BW25113 ΔsbmA
Escherichia coli BW25113 = test system: Escherichia coli BW25113
[13] = test system: Klebsiella pneumoniae ATCC 700603
[14] = test system: Pseudomonas aeruginosa ATCC 27853
[15] = test system: Acinetobacter baumannii LMG 01041
[16] = test system: Escherichia coli LMG 15862
[17] = test system: Klebsiella aerogenes LMG 02094
[18] = test system: Klebsiella pneumoniae LMG 20218
[19] = test system: Pseudomonas aeruginosa LMG 6395
[20] = test system: Klebsiella pneumoniae WGLW2
[21] = test system: Pseudomonas aeruginosa PA14

MIC [5]: 807 µM (≈ 625 µg/mL)
MIC [6]: ≥ 25800 µM
MIC [7]: 403 µM (≈ 313 µg/mL)
Compound: CC(C)C[C@H](NC(=O)[C@H](CCC(=O)O)NC(=O)[C@@H](N)CCCCN)C(=O)N[C@@H](CCC(=O)O)C(=O)N[C@@H](CCC(=O)O)C(=O)N[C@@H](CCCCN)C(=O)O [KELEEK]

MIC [8]: ≥ 2500 µM
MIC (Escherichia coli): 2090 µM (≈ 2500 µg/mL)
MIC (Staphylococcus aureus): 2090 µM (≈ 2500 µg/mL)
Compound: CC[C@H](C)[C@H](NC(=O)[C@@H]1CCCN1C(=O)[C@@H](N)CCC(=O)O)C(=O)N1CCC[C@H]1C(=O)N[C@@H](CC(C)C)C(=O)N[C@@H](CCC(=O)O)C(=O)N[C@@H](CO)C(=O)N[C@@H](CCCN=C(N)N)C(=O)N[C@@H](CCC(=O)O)C(=O)N[C@@H](CCC(=O)O)C(=O)O [EPIPLESREE]

The next lines start with the molecule.

Compound: CC[C@H](C)[C@H](NC(=O)[C@H](Cc1c[nH]c2ccccc12)NC(=O)[C@H](CCCCN)NC(=O)[C@@H](N)CC(C)C)C(=O)NCC(=O)N[C@@H](CCCCN)C(=O)N[C@@H](Cc1c[nH]c2ccccc12)C(=O)N[C@H](C(=O)N[C@@H](Cc1c[nH]c2ccccc12)C(=O)N[C@@H](CCCN=C(N)N)C(=O)N[C@H](C(=O)NCC(=O)N[C@@H](Cc1c[nH]c2ccccc12)C(=O)N[C@@H](CC(N)=O)C(=O)N[C@@H](Cc1c[nH]c2ccccc12)C(=O)N[C@@H](CCCN=C(N)N)C(=O)O)C(C)C)[C@@H](C)CC [LKWIGKWIWRVGWNWR]
MIC [1]: ≥ 58.6 µM
MIC [2]: ≥ 58.6 µM
MIC [3]: ≥ 58.6 µM
MIC [4]: 29.3 µM (≈ 64 µg/mL)

Compound: CC[C@H](C)[C@H](NC(=O)[C@H](CCCN=C(N)N)NC(=O)[C@@H](N)Cc1c[nH]c2ccccc12)C(=O)N[C@@H](CCCN=C(N)N)C(=O)N[C@@H](CCCN=C(N)N)C(=O)N[C@@H](CCCN=C(N)N)C(=O)N[C@@H](Cc1c[nH]c2ccccc12)C(=O)N1CCC[C@H]1C(=O)N[C@@H](CCCN=C(N)N)C(=O)N[C@@H](CC(C)C)C(=O)N1CCC[C@H]1C(=O)N[C@@H](CCCN=C(N)N)C(=O)N1CCC[C@H]1C(=O)N[C@@H](CCCN=C(N)N)C(=O)N[C@@H](Cc1c[nH]c2ccccc12)C(=O)N[C@@H](CCCN=C(N)N)C(=O)O [WRIRRRWPRLPRPRWR]
MIC [9]: 4 µM (≈ 9.38 µg/mL)
MIC [10]: 8 µM (≈ 18.8 µg/mL)
MIC [11]: ≥ 32 µM
MIC [12]: 4 µM (≈ 9.38 µg/mL)
MIC (Escherichia coli BW25113): 2 µM (≈ 4.69 µg/mL)
MIC [13]: 2 µM (≈ 4.69 µg/mL)
MIC [14]: 32 µM (≈ 75 µg/mL)
MIC [7]: 12 µM (≈ 28.1 µg/mL)

Compound: CC[C@H](C)[C@H](NC(=O)[C@H](C)N)C(=O)N[C@H](C(=O)N[C@@H](CCC(N)=O)C(=O)N[C@@H](CCCN=C(N)N)C(=O)N[C@H](C(=O)N[C@@H](CCCCN)C(=O)N[C@@H](CCCCN)C(=O)N[C@@H](Cc1c[nH]c2ccccc12)C(=O)N[C@@H](CC(C)C)C(=O)N[C@@H](CCCN=C(N)N)C(N)=O)[C@@H](C)CC)C(C)C [AIVQRIKKWLR]
MIC [15]: ≥ 128 µM
MIC [16]: 12 µM (≈ 16.9 µg/mL)
MIC [17]: ≥ 128 µM
MIC [18]: 24 µM (≈ 33.8 µg/mL)
MIC [19]: 16 µM (≈ 22.6 µg/mL)

Compound: CC[C@H](C)[C@H](NC(=O)[C@H](Cc1c[nH]c2ccccc12)NC(=O)[C@H](CCCCN)NC(=O)[C@@H](N)CC(C)C)C(=O)NCC(=O)N[C@@H](CCCCN)C(=O)N[C@@H](CCCCN)C(=O)N[C@H](C(=O)N[C@@H](Cc1c[nH]c2ccccc12)C(=O)N[C@@H](CCCN=C(N)N)C(=O)N[C@H](C(=O)NCC(=O)O)C(C)C)[C@@H](C)CC [LKWIGKKIWRVG]
MIC [1]: ≥ 86.3 µM
MIC [20]: ≥ 86.3 µM
MIC [21]: ≥ 86.3 µM
MIC [3]: ≥ 86.3 µM
